{
  "source": "patent US9302999B2",
  "about": "“Substituted triazoles as herbicides” (E. I. DU PONT DE NEMOURS AND COMPANY, priority 2012, dated 2016)",
  "type_in_all_cases": "in vivo",
  "key": {"[1]": {"tested_on": "smartweed (ladysthumb smartweed, Polygonum persicaria)", "assay": "Test E pre-/postemergence: smartweed", "details": "Postemergence, scale 0 to 100", "source_text": "(§1) Seeds of plant species selected from corn (Zea mays), soybean (Glycine max), velvetleaf (Abutilon theophrasti), lambsquarters (Chenopodium album), poinsettia, wild (wild poinsettia, Euphorbia heterophylla), pigweed, palmer (palmer pigweed, Amaranthus palmeri), waterhemp (common waterhemp, Amaranthus rudis), smartweed (ladysthumb smartweed, Polygonum persicaria), surinam grass (Brachiaria decumbens), crabgrass, large (large crabgrass, Digitaria sanguinalis), crabgrass, Brazil (Brazilian crabgrass, Digitaria horizontalis), panicum, fall (fall panicum, Panicum dichotomiflorum), foxtail, giant (giant foxtail, Setaria faberii), foxtail, green (green foxtail, Setaria viridis), goosegrass (Eleusine indica), johnsongrass (Sorghum halepense), ragweed (common ragweed, Ambrosia elation), barnyardgrass (Echinochloa crus-galli), sandbur (southern sandbur, Cenchrus echinatus), arrowleaf sida (Sida rhombifolia), ryegrass, Italian (Italian ryegrass, Lolium multiflorum), dayflower, (VA) (Virginia dayflower, Commelina virginica), field bindweed (Convolvulus arvensis), cocklebur (common cocklebur, Xanthium strumarium), morningglory (Ipomoea coccinea), nightshade (eastern black nightshade, Solanum ptycanthum), kochia (Kochia scoparia), nutsedge, yellow (yellow nutsedge, Cyperus esculentus) and beggarticks (hairy beggarticks, Bidens pilosa) were planted into a silt loam soil and treated preemergence with test chemicals formulated in a non-phytotoxic solvent mixture which included a surfactant. At the same time, plants selected from these crop and weed species were planted in pots containing a growing medium comprising spaghnum peat moss, vermiculite, wetting agent and starter nutrients and treated with postemergence applications of some of the test chemicals formulated in the same manner. Plants ranged in height from 2 to 18 cm for postemergence treatments (1- to 4-leaf stage).\n(§2) Treated plants and controls were maintained in a greenhouse for 14 to 21 days, after which time all species were compared to controls and visually evaluated. Plant response ratings, summarized in Table E, are based on a scale of 0 to 100 where 0 is no effect and 100 is complete control. A dash (-) response means no test result."}, "[2]": {"tested_on": "surinam grass (Brachiaria decumbens)", "assay": "Test E pre-/postemergence: surinam grass", "details": "Preemergence, scale 0 to 100", "method_in_brief": "(§3)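 Greenhouse pot test, both timings. Pre: silt loam, sprayed after planting. Post: 2–18 cm plants (1–4 leaf), peat moss/vermiculite mix. Same surfactant-containing formulation for both. Read: visual % control, 0–100, day 14–21.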"}, "[3]": {"tested_on": "corn (Zea mays)", "assay": "Test E pre-/postemergence: corn", "details": "scale 0 to 100", "method_in_brief": "as §3"}, "[4]": {"tested_on": "sandbur (southern sandbur, Cenchrus echinatus)", "assay": "Test E pre-/postemergence: sandbur", "details": "scale 0 to 100", "method_in_brief": "as §3"}, "[5]": {"tested_on": "foxtail, giant (giant foxtail, Setaria faberii)", "assay": "Test E pre-/postemergence: foxtail, giant", "details": "Preemergence, scale 0 to 100", "method_in_brief": "as §3"}, "[6]": {"tested_on": "waterhemp (common waterhemp, Amaranthus rudis)", "assay": "Test E pre-/postemergence: waterhemp", "details": "scale 0 to 100", "method_in_brief": "as §3"}, "[7]": {"tested_on": "morningglory (Ipomoea coccinea)", "assay": "Test E pre-/postemergence: morningglory", "details": "Preemergence, scale 0 to 100", "source_text": "as §1, §2"}, "[8]": {"tested_on": "crabgrass, large (large crabgrass, Digitaria sanguinalis)", "assay": "Test E pre-/postemergence: crabgrass, large", "details": "Preemergence, scale 0 to 100", "method_in_brief": "as §3"}, "[9]": {"tested_on": "nightshade (eastern black nightshade, Solanum ptycanthum)", "assay": "Test E pre-/postemergence: nightshade", "details": "Preemergence, scale 0 to 100", "method_in_brief": "as §3"}, "[10]": {"tested_on": "johnsongrass (Sorghum halepense)", "assay": "Test E pre-/postemergence: johnsongrass", "details": "Preemergence, scale 0 to 100", "method_in_brief": "as §3"}},
  "data": [
    {"smiles": "Cc1nn(-c2ccc(C(F)(F)F)cc2)nc1Oc1ccnc(C(F)(F)F)c1", "note": "[Compound 120]", "values": [
      {"measurement": "Plant response rating: Smartweed", "setting": "[1]; 8 g ai/ha", "result": 10},
      {"measurement": "Plant response rating: Smartweed", "setting": "[1]; 16 g ai/ha", "result": 10},
      {"measurement": "Plant response rating: Smartweed", "setting": "[1]; 125 g ai/ha", "result": 40},
      {"measurement": "Plant response rating: Surinam Grass", "setting": "[2]; 16 g ai/ha", "result": 0},
      {"measurement": "Plant response rating: Surinam Grass", "setting": "[2]; 31 g ai/ha", "result": 35},
      {"measurement": "Plant response rating: Surinam Grass", "setting": "[2]; 62 g ai/ha", "result": 35},
      {"measurement": "Plant response rating: Surinam Grass", "setting": "[2]; 125 g ai/ha", "result": 90},
      {"measurement": "Plant response rating: Surinam Grass", "setting": "[2]; 250 g ai/ha", "result": 100},
      {"measurement": "Plant response rating: Corn", "setting": "[3]; Postemergence, 8 g ai/ha", "result": 10},
      {"measurement": "Plant response rating: Corn", "setting": "[3]; Postemergence, 16 g ai/ha", "result": 10},
      {"measurement": "Plant response rating: Corn", "setting": "[3]; Postemergence, 31 g ai/ha", "result": 10},
      {"measurement": "Plant response rating: Corn", "setting": "[3]; Postemergence, 62 g ai/ha", "result": 20},
      {"measurement": "Plant response rating: Corn", "setting": "[3]; Postemergence, 125 g ai/ha", "result": 20},
      {"measurement": "Plant response rating: Corn", "setting": "[3]; Preemergence, 16 g ai/ha", "result": 0},
      {"measurement": "Plant response rating: Corn", "setting": "[3]; Preemergence, 62 g ai/ha", "result": 5},
      {"measurement": "Plant response rating: Corn", "setting": "[3]; Preemergence, 125 g ai/ha", "result": 10},
      {"measurement": "Plant response rating: Corn", "setting": "[3]; Preemergence, 250 g ai/ha", "result": 10},
      {"measurement": "Plant response rating: Sandbur", "setting": "[4]; Postemergence, 8 g ai/ha", "result": 10},
      {"measurement": "Plant response rating: Sandbur", "setting": "[4]; Postemergence, 16 g ai/ha", "result": 10},
      {"measurement": "Plant response rating: Sandbur", "setting": "[4]; Postemergence, 31 g ai/ha", "result": 20},
      {"measurement": "Plant response rating: Sandbur", "setting": "[4]; Postemergence, 62 g ai/ha", "result": 30},
      {"measurement": "Plant response rating: Sandbur", "setting": "[4]; Postemergence, 125 g ai/ha", "result": 35},
      {"measurement": "Plant response rating: Sandbur", "setting": "[4]; Preemergence, 16 g ai/ha", "result": 5},
      {"measurement": "Plant response rating: Sandbur", "setting": "[4]; Preemergence, 31 g ai/ha", "result": 5},
      {"measurement": "Plant response rating: Sandbur", "setting": "[4]; Preemergence, 62 g ai/ha", "result": 5},
      {"measurement": "Plant response rating: Sandbur", "setting": "[4]; Preemergence, 125 g ai/ha", "result": 20},
      {"measurement": "Plant response rating: Sandbur", "setting": "[4]; Preemergence, 250 g ai/ha", "result": 75},
      {"measurement": "Plant response rating: Foxtail, Giant", "setting": "[5]; 16 g ai/ha", "result": 85},
      {"measurement": "Plant response rating: Foxtail, Giant", "setting": "[5]; 31 g ai/ha", "result": 100},
      {"measurement": "Plant response rating: Foxtail, Giant", "setting": "[5]; 62 g ai/ha", "result": 100},
      {"measurement": "Plant response rating: Foxtail, Giant", "setting": "[5]; 125 g ai/ha", "result": 100},
      {"measurement": "Plant response rating: Foxtail, Giant", "setting": "[5]; 250 g ai/ha", "result": 100},
      {"measurement": "Plant response rating: Waterhemp", "setting": "[6]; Postemergence, 8 g ai/ha", "result": 30},
      {"measurement": "Plant response rating: Waterhemp", "setting": "[6]; Postemergence, 16 g ai/ha", "result": 50},
      {"measurement": "Plant response rating: Waterhemp", "setting": "[6]; Postemergence, 31 g ai/ha", "result": 65},
      {"measurement": "Plant response rating: Waterhemp", "setting": "[6]; Postemergence, 62 g ai/ha", "result": 75},
      {"measurement": "Plant response rating: Waterhemp", "setting": "[6]; Postemergence, 125 g ai/ha", "result": 75},
      {"measurement": "Plant response rating: Waterhemp", "setting": "[6]; Preemergence, 16 g ai/ha", "result": 95},
      {"measurement": "Plant response rating: Waterhemp", "setting": "[6]; Preemergence, 31 g ai/ha", "result": 98},
      {"measurement": "Plant response rating: Waterhemp", "setting": "[6]; Preemergence, 62 g ai/ha", "result": 100},
      {"measurement": "Plant response rating: Waterhemp", "setting": "[6]; Preemergence, 125 g ai/ha", "result": 100},
      {"measurement": "Plant response rating: Waterhemp", "setting": "[6]; Preemergence, 250 g ai/ha", "result": 100},
      {"measurement": "Plant response rating: Morningglory", "setting": "[7]; 16 g ai/ha", "result": 0},
      {"measurement": "Plant response rating: Morningglory", "setting": "[7]; 31 g ai/ha", "result": 30},
      {"measurement": "Plant response rating: Morningglory", "setting": "[7]; 62 g ai/ha", "result": 35},
      {"measurement": "Plant response rating: Morningglory", "setting": "[7]; 125 g ai/ha", "result": 60},
      {"measurement": "Plant response rating: Morningglory", "setting": "[7]; 250 g ai/ha", "result": 60},
      {"measurement": "Plant response rating: Crabgrass, Large", "setting": "[8]; 16 g ai/ha", "result": 75},
      {"measurement": "Plant response rating: Crabgrass, Large", "setting": "[8]; 31 g ai/ha", "result": 95},
      {"measurement": "Plant response rating: Crabgrass, Large", "setting": "[8]; 62 g ai/ha", "result": 98},
      {"measurement": "Plant response rating: Crabgrass, Large", "setting": "[8]; 125 g ai/ha", "result": 100},
      {"measurement": "Plant response rating: Crabgrass, Large", "setting": "[8]; 250 g ai/ha", "result": 100},
      {"measurement": "Plant response rating: Nightshade", "setting": "[9]; 16 g ai/ha", "result": 0},
      {"measurement": "Plant response rating: Nightshade", "setting": "[9]; 31 g ai/ha", "result": 0},
      {"measurement": "Plant response rating: Nightshade", "setting": "[9]; 62 g ai/ha", "result": 80},
      {"measurement": "Plant response rating: Nightshade", "setting": "[9]; 125 g ai/ha", "result": 98},
      {"measurement": "Plant response rating: Nightshade", "setting": "[9]; 250 g ai/ha", "result": 100},
      {"measurement": "Plant response rating: Johnsongrass", "setting": "[10]; 16 g ai/ha", "result": 15},
      {"measurement": "Plant response rating: Johnsongrass", "setting": "[10]; 31 g ai/ha", "result": 15},
      {"measurement": "Plant response rating: Johnsongrass", "setting": "[10]; 62 g ai/ha", "result": 15},
      {"measurement": "Plant response rating: Johnsongrass", "setting": "[10]; 125 g ai/ha", "result": 35},
      {"measurement": "Plant response rating: Johnsongrass", "setting": "[10]; 250 g ai/ha", "result": 65}
    ]}
  ]
}
